Usually IC50 stands for the concentration needed to halve the response being measured.

The target of the assay is factor B (Homo sapiens, UniProt P00751). In words: factor B inhibition assay of Biological Example 1. More on the design: CVF-Bb complex prepared from purified cobra venom factor (1 μM), recombinant human complement factor B; made in house; host or cells: drosophila cells (factor B); E. coli (factor D used to form the complex). The class given is biochemical. The note with it: IC50 (nM), assay of Biological Example 1 (Table 1).
Chain of factor B (P00751 260-764 limits assumed): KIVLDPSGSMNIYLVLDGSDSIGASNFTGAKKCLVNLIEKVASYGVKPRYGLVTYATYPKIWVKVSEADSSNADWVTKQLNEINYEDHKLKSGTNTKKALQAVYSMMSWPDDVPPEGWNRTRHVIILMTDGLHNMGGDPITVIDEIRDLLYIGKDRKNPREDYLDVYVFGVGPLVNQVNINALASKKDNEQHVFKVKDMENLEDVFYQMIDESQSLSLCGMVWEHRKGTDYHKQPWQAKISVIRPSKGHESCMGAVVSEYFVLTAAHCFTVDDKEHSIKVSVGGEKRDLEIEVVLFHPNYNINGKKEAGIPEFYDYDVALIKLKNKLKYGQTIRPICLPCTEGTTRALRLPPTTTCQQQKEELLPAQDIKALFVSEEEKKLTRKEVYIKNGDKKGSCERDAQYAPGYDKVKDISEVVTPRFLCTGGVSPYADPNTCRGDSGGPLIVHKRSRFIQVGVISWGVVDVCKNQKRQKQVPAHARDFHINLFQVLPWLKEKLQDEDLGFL
Chain of factor B (Q91132 23-649 partner limits assumed): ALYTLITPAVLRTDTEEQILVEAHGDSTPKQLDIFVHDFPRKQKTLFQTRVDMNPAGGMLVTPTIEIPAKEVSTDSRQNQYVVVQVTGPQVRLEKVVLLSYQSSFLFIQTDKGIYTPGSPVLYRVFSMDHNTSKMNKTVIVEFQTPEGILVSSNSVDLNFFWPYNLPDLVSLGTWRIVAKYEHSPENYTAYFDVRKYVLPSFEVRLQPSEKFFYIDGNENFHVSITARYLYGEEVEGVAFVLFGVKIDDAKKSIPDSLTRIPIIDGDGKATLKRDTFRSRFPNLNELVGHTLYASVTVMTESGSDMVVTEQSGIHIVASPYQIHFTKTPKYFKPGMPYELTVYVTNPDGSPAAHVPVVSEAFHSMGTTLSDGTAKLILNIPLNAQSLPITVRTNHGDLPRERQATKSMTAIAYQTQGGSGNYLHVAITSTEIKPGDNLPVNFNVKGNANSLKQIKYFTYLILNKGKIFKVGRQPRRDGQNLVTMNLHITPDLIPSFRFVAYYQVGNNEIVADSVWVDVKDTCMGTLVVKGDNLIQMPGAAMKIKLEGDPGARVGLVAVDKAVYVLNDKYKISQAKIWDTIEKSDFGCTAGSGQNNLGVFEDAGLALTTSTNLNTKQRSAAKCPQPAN
Chain of factor B (Q91132 733-984 partner limits assumed): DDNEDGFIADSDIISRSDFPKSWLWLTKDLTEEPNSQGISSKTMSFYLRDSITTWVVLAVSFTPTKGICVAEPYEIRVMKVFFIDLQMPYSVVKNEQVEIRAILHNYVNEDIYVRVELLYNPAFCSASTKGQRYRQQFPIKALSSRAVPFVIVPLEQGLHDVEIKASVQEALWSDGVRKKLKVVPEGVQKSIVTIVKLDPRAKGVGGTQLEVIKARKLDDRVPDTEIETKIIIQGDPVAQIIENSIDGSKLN
Chain of factor B (Q91132 1264-1642 partner limits assumed): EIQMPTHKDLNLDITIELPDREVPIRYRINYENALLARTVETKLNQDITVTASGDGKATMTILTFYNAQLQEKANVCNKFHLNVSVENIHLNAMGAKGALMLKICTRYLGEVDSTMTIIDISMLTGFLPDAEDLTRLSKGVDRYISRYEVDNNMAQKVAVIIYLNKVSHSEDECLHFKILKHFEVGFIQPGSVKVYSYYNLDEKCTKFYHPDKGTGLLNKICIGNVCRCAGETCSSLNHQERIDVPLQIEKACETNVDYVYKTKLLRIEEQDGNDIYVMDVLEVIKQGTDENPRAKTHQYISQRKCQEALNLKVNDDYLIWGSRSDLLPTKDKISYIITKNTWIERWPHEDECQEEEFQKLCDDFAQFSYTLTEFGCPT

As to `CCOc1cc(C)c2[nH]ccc2c1C(C)(O)c1nc2cc(C#N)ccc2[nH]1` (single isomer, unassigned; (-)) [26-D b) (−), (−)-2-(1-(5-ethoxy-7-methyl-1H-indol-4-yl)-1-hydroxyethyl)-1H-benzo[d]imidazole-5-carbonitrile], the half-inhibitory concentration (IC50) amounted to 440 nM.
The same measure for `Cc1cc(OC(C)C)c(C(C)(O)c2nc3cc(C#N)ccc3[nH]2)c2cc[nH]c12` (single isomer, unassigned; (-)) [26-E b) (−), (−)-2-(1-hydroxy-1-(5-isopropoxy-7-methyl-1H-indol-4-yl)ethyl)-1H-benzo[d]imidazole-5-carbonitrile]: 170 nM; for `CCC(O)(c1nc2cc(C#N)ccc2[nH]1)c1c(OC(C)C)cc(C)c2[nH]ccc12` (single isomer, unassigned; (-)) [26-F b) (−), (−)-2-(1-hydroxy-1-(5-isopropoxy-7-methyl-1H-indol-4-yl)propyl)-1H-benzo[d]imidazole-5-carbonitrile]: 380 nM.
Consider `Cc1cc(OCC2CC2)c(C(C)(O)c2nc3cc(C#N)ccc3[nH]2)c2cc[nH]c12` (single isomer, unassigned; (-)) [26-G b) (−), (−)-2-(1-(5-(cyclopropylmethoxy)-7-methyl-1H-indol-4-yl)-1-hydroxyethyl)-1H-benzo[d]imidazole-5-carbonitrile], for which the IC50 is 4380 nM.
The same measure for `[2H]C([2H])([2H])C(OC)(c1nc2cc(C#N)ccc2[nH]1)c1c(OC)cc(C)c2[nH]ccc12` (single isomer, unassigned; (-)) [27-E b) (−), (−)-2-((^2H3)methyl(methoxy)(5-methoxy-7-methyl-1H-indol-4-yl)methyl)-1H-benzo[d]imidazole-5-carbonitrile]: 4 nM.
The value for `[2H]C([2H])([2H])OC(C)(c1nc2cc(C#N)ccc2[nH]1)c1c(OC)cc(C)c2[nH]ccc12` (single isomer, unassigned; (-)) [27-F b) (−), (−)-2-(1-(^2H3)methoxy-1-(5-methoxy-7-methyl-1H-indol-4-yl)ethyl)-1H-benzo[d]imidazole-5-carbonitrile] was 9 nM; that for `COc1cc(C)c2[nH]cc(Cl)c2c1C(O)c1nc2cc(C#N)ccc2[nH]1` (single isomer, unassigned; (-)) [28-C b) (−), (−)-2-((3-chloro-5-methoxy-7-methyl-1H-indol-4-yl)(hydroxy)methyl)-1H-benzo[d]imidazole-5-carbonitrile] was 140 nM; that for `COc1cc(C)c2[nH]ccc2c1C(O)(c1nc2cc(C#N)ccc2[nH]1)C(F)(F)F` (single isomer, unassigned; (-)) [33-B b) (−), (−)-2-(2,2,2-trifluoro-1-hydroxy-1-(5-methoxy-7-methyl-1H-indol-4-yl)ethyl)-1H-benzo[d]imidazole-5-carbonitrile] was 50 nM.
The value for `COc1cc(C)c2[nH]ccc2c1C(OC)(c1nc2cc(C#N)ccc2[nH]1)C(F)(F)F` (single isomer, unassigned; (-)) [34-B b) (−), (−)-2-(2,2,2-trifluoro-1-methoxy-1-(5-methoxy-7-methyl-1H-indol-4-yl)ethyl)-1H-benzo[d]imidazole-5-carbonitrile] was 10 nM; that for `COc1cc(C)c2[nH]ccc2c1C(OCC(=O)O)(c1nc2cc(C#N)ccc2[nH]1)C(F)(F)F` (single isomer, unassigned; (-)) [35-C (−), (−)-2-(1-(5-cyano-1H-benzo[d]imidazol-2-yl)-2,2,2-trifluoro-1-(5-methoxy-7-methyl-1H-indol-4-yl)ethoxy)acetic acid] was 40 nM.
Consider `CNC(c1nc2cc(C#N)ccc2[nH]1)(c1c(OC)cc(C)c2[nH]ccc12)C(F)(F)F` (single isomer, unassigned; (-)) [38-B b) (−), (−)-2-(2,2,2-trifluoro-1-(5-methoxy-7-methyl-1H-indol-4-yl)-1-(methylamino)ethyl)-1H-benzo[d]imidazole-5-carbonitrile], for which the 50% inhibitory concentration (IC50) was 8 nM.

The values above are taken from patent US9056874B2, “Complement pathway modulators and uses thereof” (NOVARTIS AG, priority 2012, dated 2015).
